According to patent US20210246115A1 (Bioimics AB, priority 2017, published 2021):
Where a name gives a salt, the structure may show the parent alone.

Key:
[1] = test system: Escherichia coli (ATCC25922); assay: MIC, broth microdilution (CLSI), Escherichia coli; conditions: Escherichia coli, ATCC25922, read-out: E. coli ATCC 25922 MIC, Table XIII
[2] = test system: Staphylococcus aureus (ATCC25923); assay: MIC, broth microdilution (CLSI), Staphylococcus aureus ATCC25923; conditions: Staphylococcus aureus, ATCC25923, read-out: S. aureus ATCC 25923 MIC
[3] = test system: E. coli RNase P RNA, M1 RNA; assay: Inhibition of bacterial RNase P activity, IC50 determination (cleavage of pATSerUG by M1 RNA); format: biochemical; conditions: NI: No inhibition

| MIC [1] | MIC [2] | IC50 [3] | Structure (SMILES) | IC50 ([3]; hydrochloride salt) |
| --- | --- | --- | --- | --- |
| 65 µg/mL | 8 µg/mL | 20 µM | Cc1cccc(C(CC(=O)NC2CCCC(N)C2)c2cn(CC3CCCCC3)c3ccccc23)c1.Cl (stereo not drawn) [Compound 178, N-(3-aminocyclohexyl)-3-(1-(cyclohexylmethyl)-1H-indol-3-yl)-3-(m-tolyl)propanamide hydrochloride salt] |  |
| 275 µg/mL | 9 µg/mL | 7 µM | Cc1cccc(C(CC(=O)NC[C@H]2CC[C@H](CN)CC2)c2cn(CC3CCCCC3)c3ccccc23)c1.Cl (stereo partly drawn) [Compound 166, N-(((1S,4S)-4-(aminomethyl)cyclohexyl)methyl)-3-(1-(cyclohexylmethyl)-1H-indol-3-yl)-3-(m-tolyl)propanamide hydrochloride salt] |  |
| 32 µg/mL | 8 µg/mL | 19 µM | Cc1cccc(C(CC(=O)NCCC2CCNCC2)c2cn(CC3CCCCC3)c3ccc(F)cc23)c1.Cl (stereo not drawn) [Compound 119, 3-(1-(cyclohexylmethyl)-5-fluoro-1H-indol-3-yl)-N-(2-(piperidin-4-yl)ethyl)-3-(m-tolyl)propanamide hydrochloride salt] |  |
| 64 µg/mL | 16 µg/mL | 45 µM | Cc1cccc(C(CC(=O)NCCC2CCNCC2)c2cn(CC3CCCCC3)c3ccccc23)c1.Cl (stereo not drawn) [Compound 92, 3-(1-(cyclohexylmethyl)-1H-indol-3-yl)-N-(2-(piperidin-4-yl)ethyl)-3-(m-tolyl)propanamide hydrochloride salt] |  |
| 65 µg/mL | 8 µg/mL | 14 µM | Cc1cccc(C(CC(=O)N2CCC(CN)CC2)c2cn(CC3CCCCC3)c3ccccc23)c1.Cl (stereo not drawn) [Compound 167, 1-(4-(aminomethyl)piperidin-1-yl)-3-(1-(cyclohexylmethyl)-1H-indol-3-yl)-3-(m-tolyl)propan-1-one hydrochloride salt] |  |
| 75 µg/mL | 2 µg/mL | 15.4 µM | Cc1cccc(C(CC(=O)NC2CCC(NC(=N)N)CC2)c2cn(CC3CCCCC3)c3ccccc23)c1 (stereo not drawn) [Compound 201, 3-(1-(cyclohexylmethyl)-1H-indol-3-yl)-N-(4-guanidinocyclohexyl)-3-(m-tolyl) propanamide hydrochloride salt] |  |
| 64 µg/mL | 4 µg/mL | 5.6 µM | Cc1cccc(C(CC(=O)NCCC2CCNCC2)c2cn(CCC3CCCCC3)c3ccccc23)c1.Cl (stereo not drawn) [Compound 110, 3-(1-(2-cyclohexylethyl)-1H-indol-3-yl)-N-(2-(piperidin-4-yl)ethyl)-3-(m-tolyl)propanamide hydrochloride salt] |  |
| > 512 µg/mL | 4 µg/mL | 9.2 µM | Cc1cccc(C(CC(=O)NC2CCC(N)CC2)c2cn(CC3CCCCCC3)c3ccccc23)c1.Cl [Compound 238, N-((1S,4S)-4-aminocyclohexyl)-3-(1-(cycloheptylmethyl)-1H-indol-3-yl)-3-(m-tolyl)propanamide hydrochloride salt] |  |
| 63 µg/mL | 8 µg/mL | 12 µM | Cc1cccc(C(CC(=O)N2CCC(N)CC2)c2cn(CC3CCCCC3)c3ccccc23)c1.Cl (stereo not drawn) [Compound 179, 1-(4-aminopiperidin-1-yl)-3-(1-(cyclohexylmethyl)-1H-indol-3-yl)-3-(m-tolyl)propan-1-one hydrochloride salt] |  |

More lines, now with the values behind:

| Structure (SMILES) | MIC [1] | MIC [2] | IC50 [3] | IC50 ([3]; hydrochloride salt) |
| --- | --- | --- | --- | --- |
| COc1cc(C)cc(C(CC(=O)N[C@H]2CC[C@H](N)CC2)c2cn(CC3CCCCC3)c3ccccc23)c1.Cl (stereo partly drawn) [Compound 133, N-((1R,4R)-4-aminocyclohexyl)-3-(1-(cyclohexylmethyl)-1H-indol-3-yl)-3-(3-methoxy-5-methylphenyl) propanamide hydrochloride salt] | > 512 µg/mL | > 512 µg/mL | 76 µM |  |
| NC1CCC(NCCc2cn(CC3CCCCC3)c3ccc(-c4ccccc4OC(F)(F)F)cc23)CC1 [Compound 241, (1S,4S)-N1-(2-(1-(cyclohexylmethyl)-5-(2-(trifluoromethoxy)phenyl)-1H-indol-3-yl)ethyl)cyclohexane-1,4-diamine hydrochloride salt] | 5 µg/mL | 2 µg/mL | 25 µM |  |
| Cl.N[C@H]1CC[C@H](NC(=O)CCc2cn(CC3CCCCC3)c3ccc(-c4ccccc4OC(F)(F)F)cc23)CC1 [Compound 231, N-((1R,4R)-4-aminocyclohexyl)-3-(1-(cyclohexylmethyl)-5-(2-(trifluoromethoxy)phenyl)-1H-indol-3-yl) propanamide hydrochloride salt] | > 512 µg/mL | 5 µg/mL | 4.4 µM |  |
| Cc1cccc(-c2ccc3c(c2)c(CC(=O)N[C@H]2CC[C@H](N)CC2)cn3CC2CCCCC2)c1.Cl [Compound 209, N-((1R,4R)-4-aminocyclohexyl)-2-(1-(cyclohexylmethyl)-5-(m-tolyl)-1H-indol-3-yl)acetamide hydrochloride salt] | 63 µg/mL | 4 µg/mL | 5.4 µM |  |
| Cc1cccc(C(CC(=O)N[C@H]2CC[C@H](N)CC2)c2cn(CC3CCCCC3)c3ccc(Br)cc23)c1.Cl (stereo partly drawn) [Compound 126, N-((1R,4R)-4-aminocyclohexyl)-3-(5-bromo-1-(cyclohexylmethyl)-1H-indol-3-yl)-3-(m-tolyl)propanamide hydrochloride salt] | > 512 µg/mL | 4 µg/mL | 5.8 µM |  |
| Cc1cccc(C(CC(=O)N[C@H]2CC[C@H](N)CC2)c2cn(Cc3ccccc3)c3ncccc23)c1.Cl (stereo partly drawn) [Compound 71, N-((1R,4R)-4-aminocyclohexyl)-3-(1-benzyl-1H-pyrrolo[2,3-b]pyridin-3-yl)-3-(m-tolyl)propanamide hydrochloride salt] | > 512 µg/mL | 258 µg/mL | 269 µM |  |
| Cl.N[C@H]1CC[C@H](NC(=O)CC(c2ccc(F)c(F)c2)c2cn(CC3CCCCC3)c3ccccc23)CC1 (stereo partly drawn) [Compound 134, N-((1R,4R)-4-aminocyclohexyl)-3-(1-(cyclohexylmethyl)-1H-indol-3-yl)-3-(3,4-difluorophenyl)propanamide hydrochloride salt] | 256 µg/mL | 4 µg/mL | 19 µM |  |
| COc1cccc(C(CC(=O)N[C@H]2CC[C@@H](N)CC2)c2cn(Cc3ccccc3)c3ccccc23)c1.Cl (stereo partly drawn) [Compound 66, N-((1S,4S)-4-aminocyclohexyl)-3-(1-benzyl-1H-indol-3-yl)-3-(3-methoxyphenyl) propanamide hydrochloride salt] | 133 µg/mL | 33 µg/mL | 195 µM |  |
| Cc1cccc(C(CC(=O)NCCC2CCNCC2)c2cn(Cc3ccccc3)c3ncccc23)c1.Cl (stereo not drawn) [Compound 39, 3-(1-benzyl-1H-pyrrolo[2,3-b]pyridin-3-yl)-N-(2-(piperidin-4-yl)ethyl)-3-(m-tolyl)propanamide hydrochloride salt] | > 512 µg/mL | 265 µg/mL | 959 µM |  |
| COc1ccccc1-c1ccc2c(c1)c(CCC(=O)N[C@H]1CC[C@H](N)CC1)cn2CC1CCCCC1.Cl [Compound 230, N-((1R,4R)-4-aminocyclohexyl)-3-(1-(cyclohexylmethyl)-5-(2-methoxyphenyl)-1H-indol-3-yl)propanamide hydrochloride salt] | 67 µg/mL | 8 µg/mL | 11 µM |  |
| Cc1cccc(C(CCNC2CCC(N)CC2)c2cn(CC3CCCCC3)c3ccc(Br)cc23)c1 [Compound 169, (1S,4S)-N1-(3-(5-bromo-1-(cyclohexylmethyl)-1H-indol-3-yl)-3-(m-tolyl)propyl)cyclohexane-1,4-diamine hydrochloride salt] | 5 µg/mL | 2 µg/mL | 21 µM |  |
| Cc1cccc(C(CC(=O)NCC2CCNCC2)c2cn(Cc3ccccc3)c3ncccc23)c1.Cl (stereo not drawn) [Compound 69, 3-(1-benzyl-1H-pyrrolo[2,3-b]pyridin-3-yl)-N-(piperidin-4-ylmethyl)-3-(m-tolyl)propanamide hydrochloride salt] | > 512 µg/mL | > 512 µg/mL | 825 µM |  |
| COc1ccccc1-c1ccc2c(c1)c(C(CCN[C@H]1CC[C@H](N)CC1)c1cccc(C)c1)cn2CC1CCCCC1 (stereo partly drawn) [Compound 229, (1R,4R)-N1-(3-(1-(cyclohexylmethyl)-5-(2-methoxyphenyl)-1H-indol-3-yl)-3-(m-tolyl)propyl)cyclohexane-1,4-diamine hydrochloride salt] | 20 µg/mL | 3 µg/mL | 5.4 µM |  |
| NC1CCC(NC(=O)Cc2cn(CC3CCCCC3)c3ccc(-c4ccncc4)cc23)CC1 [Compound 255, N-((1S,4S)-4-aminocyclohexyl)-2-(1-(cyclohexylmethyl)-5-(pyridin-4-yl)-1H-indol-3-yl)acetamide hydrochloride salt] | 66 µg/mL | 8 µg/mL | 33 µM |  |
| N[C@H]1CC[C@H](NC2CCC(c3cn(CC4CCCCC4)c4ccc(Br)cc34)CC2)CC1 (single isomer, unassigned) [Compound 265, (1r,4r)-N1-(4-(5-bromo-1-(cyclohexylmethyl)-1H-indol-3-yl)cyclohexyl)cyclohexane-1,4-diamine hydrochloride salt] | 2 µg/mL | 2 µg/mL |  | 15 µM |
| O=C(CC(c1cn(CC2CCCCC2)c2ccccc12)C1CCNCC1)NCCC1CCNCC1 (stereo not drawn) [Compound 145, 3-(1-(cyclohexylmethyl)-1H-indol-3-yl)-3-(piperidin-4-yl)-N-(2-(piperidin-4-yl)ethyl)propanamide hydrochloride salt] | > 512 µg/mL | 512 µg/mL | 1480 µM |  |
| Cc1ccccc1C(CC(=O)NC1CCC(N)CC1)c1cn(CC2CCCCC2)c2ccccc12.Cl [Compound 149, N-((1S,4S)-4-aminocyclohexyl)-3-(1-(cyclohexylmethyl)-1H-indol-3-yl)-3-(o-tolyl)propanamide hydrochloride salt] | > 512 µg/mL | 16 µg/mL | 13 µM |  |
